Data published in patent US5986131A, “RXR selective ligands” (Hoffmann-La Roche Inc., priority 1997, dated 1999).

Key:
RXRα = target: T1, RXRα (Homo sapiens, UniProt P19793); test: RXRα activation (transactivation); type: cell-based; conditions: Table 6; @ 1000 nM; read-out: RXR Activation % max (α)
T1 sequence (P19793 1-462): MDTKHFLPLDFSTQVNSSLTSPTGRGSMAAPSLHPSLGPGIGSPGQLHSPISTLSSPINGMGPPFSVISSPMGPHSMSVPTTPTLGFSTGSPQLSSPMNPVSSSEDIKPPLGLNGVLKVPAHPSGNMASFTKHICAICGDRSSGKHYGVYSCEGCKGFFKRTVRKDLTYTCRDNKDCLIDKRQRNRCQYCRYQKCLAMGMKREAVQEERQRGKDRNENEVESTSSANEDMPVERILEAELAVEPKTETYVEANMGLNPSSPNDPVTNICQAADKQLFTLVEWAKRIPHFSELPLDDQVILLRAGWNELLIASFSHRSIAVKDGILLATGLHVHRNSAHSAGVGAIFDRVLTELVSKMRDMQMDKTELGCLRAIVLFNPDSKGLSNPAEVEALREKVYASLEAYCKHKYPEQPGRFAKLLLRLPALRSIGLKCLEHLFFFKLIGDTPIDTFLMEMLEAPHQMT
Description: (§1) Methods essentially as described in those publications were used to determine the binding and transactivation properties of retinoids reported in the Examples herein.

RAR γ [1] = target: T2, RAR γ (Homo sapiens, UniProt P13631); test: RARγ activation (transactivation); type: cell-based; conditions: Table 6; @ 1000 nM; read-out: RAR Activation % max (γ)
T2 sequence (P13631 1-454): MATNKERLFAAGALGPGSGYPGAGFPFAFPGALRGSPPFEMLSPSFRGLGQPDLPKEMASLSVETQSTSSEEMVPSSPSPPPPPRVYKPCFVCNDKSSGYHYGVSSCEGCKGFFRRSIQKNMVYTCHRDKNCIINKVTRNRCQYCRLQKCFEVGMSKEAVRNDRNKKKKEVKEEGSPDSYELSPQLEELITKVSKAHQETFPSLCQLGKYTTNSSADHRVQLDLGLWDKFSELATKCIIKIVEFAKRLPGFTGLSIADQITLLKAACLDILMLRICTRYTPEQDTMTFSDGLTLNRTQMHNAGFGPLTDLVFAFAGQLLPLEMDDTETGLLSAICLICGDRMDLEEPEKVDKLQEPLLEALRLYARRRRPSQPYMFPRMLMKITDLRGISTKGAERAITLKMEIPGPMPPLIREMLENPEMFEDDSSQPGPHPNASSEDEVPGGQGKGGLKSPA
Description: (§2) Methods for determining the binding and transactivation properties of retinoids with regard to the RAR receptors and RXR receptors are known in the art, e.g., Levin et al., Nature, 355:359-361 (Jan. 23, 1992); Allenby et al., Proc. Natl. Acad. Sci. USA, 90:30-34 (January, 1993); Allenby et al., J. Biol. Chem., 269:16689-16695 (Jun. 17, 1994). Methods essentially as described in those publications were used to determine the binding and transactivation properties of retinoids reported in the Examples herein.
(§3) Retinoid receptor binding and transactivation assays were performed on Compound B and Example 6 as described above.

RAR β [2] = target: T3, RAR β (Homo sapiens, UniProt P10826); test: RARβ binding; conditions: Table 6
T3 sequence (P10826 1-455): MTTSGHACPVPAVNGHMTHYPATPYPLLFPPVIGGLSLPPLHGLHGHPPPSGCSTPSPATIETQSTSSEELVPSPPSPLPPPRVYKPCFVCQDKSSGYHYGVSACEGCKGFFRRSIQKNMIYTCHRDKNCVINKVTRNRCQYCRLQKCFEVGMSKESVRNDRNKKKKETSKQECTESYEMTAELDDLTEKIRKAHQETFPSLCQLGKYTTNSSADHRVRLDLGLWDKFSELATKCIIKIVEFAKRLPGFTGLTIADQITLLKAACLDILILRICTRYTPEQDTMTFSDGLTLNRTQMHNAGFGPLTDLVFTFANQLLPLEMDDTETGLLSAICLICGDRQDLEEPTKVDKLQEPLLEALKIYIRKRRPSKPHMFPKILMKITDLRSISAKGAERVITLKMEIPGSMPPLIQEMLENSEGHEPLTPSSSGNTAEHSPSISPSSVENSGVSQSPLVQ
Description: as §2, §3

RAR β [3] = target: T3, RAR β; test: RARβ activation (transactivation); type: cell-based; conditions: Table 6
Description: as §2, §3

RARα [4] = target: T4, RARα (Homo sapiens, UniProt P10276); test: RARα activation (transactivation); type: cell-based; conditions: Table 6
T4 sequence (P10276 1-462): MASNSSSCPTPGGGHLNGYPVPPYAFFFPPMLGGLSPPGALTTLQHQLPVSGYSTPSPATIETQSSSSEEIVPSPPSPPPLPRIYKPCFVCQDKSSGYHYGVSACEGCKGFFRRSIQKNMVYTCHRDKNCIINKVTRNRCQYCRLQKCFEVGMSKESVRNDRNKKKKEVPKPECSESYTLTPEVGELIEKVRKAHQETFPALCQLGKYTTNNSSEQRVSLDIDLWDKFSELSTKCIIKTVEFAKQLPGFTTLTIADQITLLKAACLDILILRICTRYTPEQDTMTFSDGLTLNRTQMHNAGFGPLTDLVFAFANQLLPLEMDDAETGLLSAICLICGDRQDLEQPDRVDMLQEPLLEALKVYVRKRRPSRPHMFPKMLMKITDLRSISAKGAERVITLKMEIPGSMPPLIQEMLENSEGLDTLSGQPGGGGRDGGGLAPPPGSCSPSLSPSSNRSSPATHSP
Description: as §1

RAR γ [5] = target: T2, RAR γ; test: RARγ binding; conditions: Table 6
Description: as §2, §3

RARα [6] = target: T4, RARα; test: RARα binding; conditions: Table 6; read-out: RAR Binding IC50 (α)
Description: as §1

T47-D = T47-D breast carcinoma cell growth inhibition (MTT), combination; type: cell-based, human; conditions: Compound B plus constant concentration of Example 6; FIG. 7
Protocol: The compound of Example 6 was tested for its ability to inhibit a human breast carcinoma cell line in combination with a retinoid having RARα activity, all-E-3,7-dimethyl-9-[(2-methoxy-4-methyl-6-octyloxy)phenyl]-2,4,6,8-nonatetraenoic acid (Compound B), as shown: [drawing 7]
Breast carcinoma cell line, T47-D, obtained from the ATCC [Accession No. HTB133] was grown in RPMI 1640 media supplemented with 10% FBS, 10 μg/ml insulin and 13 ng/ml gentamicin, and incubated at 37° C., 4.5% CO2 and 95.5% humidified air. The cells were harvested upon reaching 70-80% confluency and pelleted. The cells were resuspended in the media and seeded (150 μl/well) into 96-well plates (Corning) at a density allowing linear growth over a seven day assay period (i.e., T47-D seeded at 4×10^3 cells/well). […]
Liquid was removed by aspiration, 50 μl 95% ethanol was added, and the plates were shaken (Mini-Orbital Shaker, Bellco) for 15 minutes to solubilize the formazan product. The optical density of each well was measured using an automatic plate reader (Microplate EL320 Reader, Bio-Tek Instruments) with a test wavelength of 570 nm and a reference wavelength of 660 nm. The amount of cell growth inhibition caused by various concentrations of Compound B in combination with a constant concentration of the compound of Example 6 was determined in accordance with the following equation: [formula]

Emax at 1 µM (RXRα) | Emax at 1 µM (RAR γ [1]) | IC50 (RAR β [2]) | EC50 (RAR β [3]) | EC50 (RARα [4]; read-out: RAR Activation EC50 (α)) | IC50 (RAR γ [5]) | IC50 (RARα [6]) | Emax at 1 µM (RAR β [3]; @ 1000 nM, read-out: RAR Activation % max (β)) | Emax at 1 µM (RARα [4]; @ 1000 nM, read-out: RAR Activation % max (α)) | Structure (SMILES) | antiproliferative activity in breast cancer cell line in combination (potentiation of Compound B) (T47-D)
0% | 48% | 500 nM | 5.3 nM | 11 nM | > 10000 nM | 240 nM | – | – | CCCCCCCCOc1cc(C)cc(OC)c1/C=C/C(C)=C/C=C/C(C)=C/C(=O)O [Compound B, all-E-3,7-dimethyl-9-[(2-methoxy-4-methyl-6-octyloxy)phenyl]-2,4,6,8-nonatetraenoic acid] | –
– | 9% | – | – | – | – | – | 8% | 4% | CC1=C(/C=C/C2=C(/C=C/C(C)=C/C(=O)O)CCCCC2)C(C)(C)CCC1 [Example 6, (2E,4E)-3-Methyl-5-(2-((E)-2(2,6,6-trimethyl-1-cyclohexen-1-yl)ethenyl)-1-cyclohepten-1-yl)-2,4-pentadienoic acid] | Enhanced antiproliferative activity
